Experimental data: patent publication US4361582A, “Aldose reductase inhibition by γ-oxo-8-fluoranthenebutanoic acid” (Ayerst, McKenna & Harrison Inc., priority 1981, dated 1982)

Columns and labels:
[1] = Acheson et al., Gastroenterology, 37, 735 (1959); cited from earlier work
lens aldose reductase = lens aldose reductase (Bos taurus, UniProt P16116); experiment: in vitro aldose reductase inhibition test (modified Hayman and Kinoshita procedure); type: biochemical, bovine; conditions: statement in words
Text: In the present case the procedure of Hayman and Kinoshita is modified in that the final chromatography step is omitted in the preparation of the enzyme from bovine lens.

Compound: O=C(O)CCC(=O)c1ccc2c(c1)-c1cccc3cccc-2c13 [Florantyrone, γ-Oxo-8-fluoranthenebutanoic acid]
- hydrocholeretic activity [1]: has hydrocholeretic activity
- inhibitor of lens aldose reductase (lens aldose reductase): potent inhibitor of lens aldose reductase
